Test results published in patent US12599136B2, “Substituted isophthalic acid diamides and their use as herbicides” (Bayer Aktiengesellschaft, priority 2020, dated 2026).

Experiments:
Assay type in all cases: in vivo
[1] = system: Matricaria inodora; experiment: Post-emergence herbicidal action against MATIN; details: visual assessment about 3 weeks after treatment
Method in brief: (§1)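 Spray, one-leaf stage: WP or EC compound in water, 600–800 l/ha, 0.2% wetting agent. Plants held about 3 weeks in the greenhouse, then visually rated in percent of kill compared with untreated controls.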

[2] = system: Pharbitis purpurea; experiment: Post-emergence herbicidal action against PHBPU; details: visual assessment about 3 weeks after treatment
Method in brief: as §1

[3] = system: Stellaria media; experiment: Post-emergence herbicidal action against STEME; details: visual assessment about 3 weeks after treatment
Method in brief: as §1

[4] = system: Viola tricolor; experiment: Pre-emergence herbicidal action against VIOTR
Method in brief: (§2)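 Pre-emergence soil-surface spray of formulated compound (WP or EC; 600 to 800 l/ha; 0.2% wetting agent) over seeds sown in sandy loam. After 3 weeks under greenhouse conditions, damage is estimated visually in percent against untreated plants.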

[5] = system: Avena fatua; experiment: Pre-emergence herbicidal action against AVEFA; details: 320 g/ha; visual score after 3 weeks vs untreated controls
Method in brief: as §2

[6] = system: Setaria viridis; experiment: Post-emergence herbicidal action against SETVI; details: visual assessment about 3 weeks after treatment
Method in brief: as §1

[7] = system: Polygonum convolvulus; experiment: Post-emergence herbicidal action against POLCO; details: 80 g/ha, visual assessment about 3 weeks after treatment
Method: (§3) Seeds of monocotyledonous and dicotyledonous weed and crop plants are laid out in sandy loam soil in wood-fiber pots, covered with soil and cultivated in a greenhouse under good growth conditions. 2 to 3 weeks after sowing, the test plants are treated at the one-leaf stage. The compounds of the invention, formulated in the form of wettable powders (WP) or as emulsion concentrates (EC), are then sprayed onto the green parts of the plants in the form of an aqueous suspension or emulsion at a water application rate equivalent to 600 to 800 l/ha, with addition of 0.2% wetting agent. After the test plants have been left to stand in the greenhouse under optimal growth conditions for about 3 weeks, the action of the preparations is assessed visually in comparison to untreated controls (herbicidal action in percent (%): 100% activity=the plants have died, 0% activity=like control plants). […] The tables below illustrate, in an illustrative manner, the post-emergence herbicidal action of the compounds of the invention, the herbicidal activity being stated in percent.

[8] = system: Cyperus esculentus; experiment: Pre-emergence herbicidal action against CYPES; details: visual score after 3 weeks vs untreated controls
Method in brief: as §2

[9] = system: Hordeum murinum; experiment: Post-emergence herbicidal action against HORMU
Method: as §3

[10] = system: Stellaria media; experiment: Pre-emergence herbicidal action against STEME
Method in brief: as §2

[11] = system: Lolium rigidum; experiment: Pre-emergence herbicidal action against LOLRI; details: 320 g/ha
Method in brief: as §2

[12] = system: Cyperus esculentus; experiment: Post-emergence herbicidal action against CYPES; details: 80 g/ha, visual assessment about 3 weeks after treatment
Method: as §3

[13] = system: Matricaria inodora; experiment: Pre-emergence herbicidal action against MATIN; details: visual score after 3 weeks vs untreated controls
Method in brief: as §2

[14] = system: Viola tricolor; experiment: Post-emergence herbicidal action against VIOTR
Method in brief: as §1

[15] = system: Setaria viridis; experiment: Pre-emergence herbicidal action against SETVI
Method in brief: as §2

[16] = system: Echinochloa crus-galli; experiment: Pre-emergence herbicidal action against ECHCG; details: visual score after 3 weeks vs untreated controls
Method in brief: as §2

[17] = system: Abutilon theophrasti; experiment: Post-emergence herbicidal action against ABUTH
Method in brief: as §1

[18] = system: Veronica persica; experiment: Post-emergence herbicidal action against VERPE; details: 80 g/ha, visual assessment about 3 weeks after treatment
Method in brief: as §1

[19] = system: Alopecurus myosuroides; experiment: Post-emergence herbicidal action against ALOMY
Method in brief: as §1

[20] = system: Veronica persica; experiment: Pre-emergence herbicidal action against VERPE; details: 320 g/ha
Method in brief: as §2

[21] = system: Avena fatua; experiment: Post-emergence herbicidal action against AVEFA; details: visual assessment about 3 weeks after treatment
Method in brief: as §1

[22] = system: Hordeum murinum; experiment: Pre-emergence herbicidal action against HORMU; details: 320 g/ha; visual score after 3 weeks vs untreated controls
Text: Seeds of monocotyledonous and dicotyledonous weed plants and crop plants are laid out in sandy loam soil in wood-fiber pots and covered with soil. The compounds of the invention, formulated in the form of wettable powders (WP) or as emulsion concentrates (EC), are then applied to the surface of the covering soil in the form of an aqueous suspension or emulsion at a water application rate equivalent to 600 to 800 l/ha, with addition of 0.2% wetting agent. After the treatment, the pots are placed in a greenhouse and kept under good growth conditions for the trial plants. The damage to the test plants is scored visually after a test period of 3 weeks by comparison with untreated controls (herbicidal activity in percent (%): 100% activity=the plants have died, 0% activity=like control plants). […] The tables below illustrate, in an illustrative manner, the post-emergence herbicidal action of the compounds of the invention, the herbicidal activity being stated in percent.

[23] = system: Amaranthus retroflexus; experiment: Post-emergence herbicidal action against AMARE; details: visual assessment about 3 weeks after treatment
Method in brief: as §1

[24] = system: Amaranthus retroflexus; experiment: Pre-emergence herbicidal action against AMARE; details: visual score after 3 weeks vs untreated controls
Method in brief: as §2

[25] = system: Abutilon theophrasti; experiment: Pre-emergence herbicidal action against ABUTH; details: visual score after 3 weeks vs untreated controls
Method in brief: as §2

[26] = system: Echinochloa crus-galli; experiment: Post-emergence herbicidal action against ECHCG; details: visual assessment about 3 weeks after treatment
Method in brief: as §1

[27] = system: Pharbitis purpurea; experiment: Pre-emergence herbicidal action against PHBPU; details: 320 g/ha; visual score after 3 weeks vs untreated controls
Method in brief: as §2

[28] = system: Alopecurus myosuroides; experiment: Pre-emergence herbicidal action against ALOMY; details: visual score after 3 weeks vs untreated controls
Method in brief: as §2

For `CCCn1nnnc1NC(=O)c1ccc(C(F)(F)F)c(C(=O)N(C)CC)c1Cl` [Example 3-124], the “Post-emergence action against MATIN in %” value ([1]; 5 g/ha) was 90%, the “Post-emergence action against MATIN in %” value ([1]; 20 g/ha) was 100% and the “Post-emergence action against MATIN in %” value ([1]; 80 g/ha) was 100%. For the same compound, the “Post-emergence action against PHBPU in %” value ([2]; 5 g/ha) was 90%, the “Post-emergence action against PHBPU in %” value ([2]; 20 g/ha) was 90% and the “Post-emergence action against PHBPU in %” value ([2]; 80 g/ha) was 100%. The “Post-emergence action against STEME in %” value ([3]; 5 g/ha) was 90%, the “Post-emergence action against STEME in %” value ([3]; 20 g/ha) was 100% and the “Post-emergence action against STEME in %” value ([3]; 80 g/ha) was 100%. The “Pre-emergence action against VIOTR” value ([4]; 80 g/ha) was 80%, the “Pre-emergence action against VIOTR” value ([4]; 320 g/ha) was 100% and the “Pre-emergence action against AVEFA” value [5] was 100%. For the same compound, the “Post-emergence action against SETVI in %” value ([6]; 5 g/ha) was 90%, the “Post-emergence action against SETVI in %” value ([6]; 20 g/ha) was 90% and the “Post-emergence action against SETVI in %” value ([6]; 80 g/ha) was 100%. For the same compound, the “Post-emergence action against POLCO in %” value [7] was 80%, the “Pre-emergence action against CYPES” value ([8]; 80 g/ha) was 80% and the “Pre-emergence action against CYPES” value ([8]; 320 g/ha) was 90%. For the same compound, the “Post-emergence action against HORMU in %” value ([9]; 20 g/ha) was 80%, the “Post-emergence action against HORMU in %” value ([9]; 80 g/ha) was 80% and the “Pre-emergence action against STEME” value ([10]; 20 g/ha) was 90%. For the same compound, the “Pre-emergence action against STEME” value ([10]; 80 g/ha) was 100%, the “Pre-emergence action against STEME” value ([10]; 320 g/ha) was 100% and the “Pre-emergence action against LOLRI” value [11] was 80%. For the same compound, the “Post-emergence action against CYPES in %” value [12] was 80%, the “Pre-emergence action against MATIN” value ([13]; 20 g/ha) was 80% and the “Pre-emergence action against MATIN” value ([13]; 80 g/ha) was 90%. The “Pre-emergence action against MATIN” value ([13]; 320 g/ha) was 90%, the “Post-emergence action against VIOTR in %” value ([14]; 5 g/ha) was 100% and the “Post-emergence action against VIOTR in %” value ([14]; 20 g/ha) was 100%. The “Post-emergence action against VIOTR in %” value ([14]; 80 g/ha) was 100%, the “Pre-emergence action against SETVI” value ([15]; 80 g/ha) was 90% and the “Pre-emergence action against SETVI” value ([15]; 320 g/ha) was 100%. The “Pre-emergence action against ECHCG” value ([16]; 80 g/ha) was 80%, the “Pre-emergence action against ECHCG” value ([16]; 320 g/ha) was 100% and the “Post-emergence action against ABUTH” value ([17]; 5 g/ha) was 100%. For the same compound, the “Post-emergence action against ABUTH” value ([17]; 20 g/ha) was 100%, the “Post-emergence action against ABUTH” value ([17]; 80 g/ha) was 100% and the “Post-emergence action against VERPE in %” value [18] was 80%. The “Post-emergence action against ALOMY” value ([19]; 20 g/ha) was 80%, the “Post-emergence action against ALOMY” value ([19]; 80 g/ha) was 100% and the “Pre-emergence action against VERPE” value [20] was 90%. For the same compound, the “Post-emergence action against AVEFA in %” value ([21]; 20 g/ha) was 80%, the “Post-emergence action against AVEFA in %” value ([21]; 80 g/ha) was 100% and the “Pre-emergence action against HORMU” value [22] was 80%. For the same compound, the “Post-emergence action against AMARE in %” value ([23]; 5 g/ha) was 100%, the “Post-emergence action against AMARE in %” value ([23]; 20 g/ha) was 100% and the “Post-emergence action against AMARE in %” value ([23]; 80 g/ha) was 100%. For the same compound, the “Pre-emergence action against AMARE” value ([24]; 20 g/ha) was 90%, the “Pre-emergence action against AMARE” value ([24]; 80 g/ha) was 100% and the “Pre-emergence action against AMARE” value ([24]; 320 g/ha) was 100%. For the same compound, the “Pre-emergence action against ABUTH” value ([25]; 20 g/ha) was 100%, the “Pre-emergence action against ABUTH” value ([25]; 80 g/ha) was 100% and the “Pre-emergence action against ABUTH” value ([25]; Dosage column 320 g/ha (heading prints 3200 g/ha)) was 100%. The “Post-emergence action against ECHCG in %” value ([26]; 5 g/ha) was 90%, the “Post-emergence action against ECHCG in %” value ([26]; 20 g/ha) was 100% and the “Post-emergence action against ECHCG in %” value ([26]; 80 g/ha) was 100%. For the same compound, the “Pre-emergence action against PHBPU” value [27] was 90%, the “Pre-emergence action against ALOMY” value ([28]; 80 g/ha) was 80% and the “Pre-emergence action against ALOMY” value ([28]; 320 g/ha) was 90%.
